Experimental data from ChEMBL document CHEMBL3792312, “Synthesis and docking studies of pyrazine-thiazolidinone hybrid scaffold targeting dormant tuberculosis” (Bioorg Med Chem Lett, 2016).
In brackets after ≈: the same amount, converted by molar mass.

Key:
Staphylococcus aureus [1] = test: Antibacterial activity against Staphylococcus aureus at 3 ug after 12 hrs; format: functional
Pseudomonas fluorescens [2] = test: Antibacterial activity against Pseudomonas fluorescens at 30 ug after 8 hrs; format: functional
[3] = (§1) Cytotoxicity against human MCF7 cells after 4 days by MTT assay; format: cell-based; conditions: human, MCF7 cells; read-out: MIC
MCF7 = test: as §1; format: cell-based; conditions: Homo sapiens, MCF7, 96 h
[4] = tested on: Mycolicibacterium smegmatis; test: Antitubercular activity against dormant Mycobacterium smegmatis MC2 155 at 30 ug after 12 days by XTT-Menadione assay; format: functional, str. MC2 155
Staphylococcus aureus [5] = test: Antibacterial activity against Staphylococcus aureus at 10 ug after 12 hrs; format: functional
Bacillus subtilis [6] = test: Antibacterial activity against Bacillus subtilis at 3 ug after 12 hrs; format: functional
Pseudomonas fluorescens [7] = test: Antibacterial activity against Pseudomonas fluorescens at 3 ug after 8 hrs; format: functional
[8] = (§2) Cytotoxicity against human A549 cells after 3 days by MTT assay; format: cell-based; conditions: human, A549 cells; read-out: MIC
A549 = test: as §2; format: cell-based; conditions: Homo sapiens, A549, 72 h
[9] = tested on: Mycobacterium tuberculosis; test: Antitubercular activity against dormant Mycobacterium tuberculosis H37Ra after 12 days by XTT-Menadione assay; format: functional, organism-based; conditions: 288 h
[10] = tested on: Mycolicibacterium smegmatis; test: Antitubercular activity against dormant Mycobacterium smegmatis MC2 155 at 3 ug after 12 days by XTT-Menadione assay; format: functional, str. MC2 155
Bacillus subtilis [11] = test: Antibacterial activity against Bacillus subtilis at 10 ug after 12 hrs; format: functional
[12] = tested on: Mycobacterium tuberculosis; test: Antitubercular activity against dormant Mycobacterium tuberculosis H37Ra at 3 ug after 12 days by XTT-Menadione assay; format: functional
Escherichia coli [13] = test: Antibacterial activity against Escherichia coli at 3 ug after 8 hrs; format: functional
Staphylococcus aureus [14] = test: Antibacterial activity against Staphylococcus aureus at 30 ug after 12 hrs; format: functional
[15] = tested on: Mycolicibacterium smegmatis; test: Antitubercular activity against dormant Mycobacterium smegmatis MC2 155 at 10 ug after 12 days by XTT-Menadione assay; format: functional, str. MC2 155
Escherichia coli [16] = test: Antibacterial activity against Escherichia coli at 30 ug after 8 hrs; format: functional
[17] = tested on: Mycobacterium tuberculosis; test: Antitubercular activity against dormant Mycobacterium tuberculosis H37Ra at 10 ug after 12 days by XTT-Menadione assay; format: functional
[18] = Cytotoxicity against human PANC1 cells after 5 days by MTT assay; format: cell-based, PANC-1; conditions: for IC50: Homo sapiens, PANC-1, 120 h; for MCC at 120 h: human, PANC1 cells, read-out: MIC
Pseudomonas fluorescens [19] = test: Antibacterial activity against Pseudomonas fluorescens at 10 ug after 8 hrs; format: functional
[20] = tested on: Mycobacterium tuberculosis; test: Antitubercular activity against dormant Mycobacterium tuberculosis H37Ra at 30 ug after 12 days by XTT-Menadione assay; format: functional
[21] = Cytotoxicity against human THP1 cells after 5 days by MTT assay; format: cell-based, THP-1; conditions: for IC50: Homo sapiens, THP-1, 120 h; for MCC at 120 h: human, THP1 cells, read-out: MIC
Bacillus subtilis [22] = test: Antibacterial activity against Bacillus subtilis at 30 ug after 12 hrs; format: functional
Escherichia coli [23] = test: Antibacterial activity against Escherichia coli at 10 ug after 8 hrs; format: functional

Structure (SMILES)	inhibition (INH) (Staphylococcus aureus [1]) [%]	inhibition (INH) (Pseudomonas fluorescens [2]) [%]	MCC at 96 h [3] [µg/mL]	IC50 (MCF7) [µg/mL]	inhibition (INH) [4] [%]	inhibition (INH) (Staphylococcus aureus [5]) [%]	inhibition (INH) (Bacillus subtilis [6]) [%]	inhibition (INH) (Pseudomonas fluorescens [7]) [%]	MCC at 72 h [8] [µg/mL]	IC50 (A549) [µg/mL]	IC50 [9] [µg/mL]	MIC [9] [µg/mL]	inhibition (INH) [10] [%]	inhibition (INH) (Bacillus subtilis [11]) [%]	inhibition (INH) [12] [%]	inhibition (INH) (Escherichia coli [13]) [%]	inhibition (INH) (Staphylococcus aureus [14]) [%]	inhibition (INH) [15] [%]	inhibition (INH) (Escherichia coli [16]) [%]	inhibition (INH) [17] [%]	also measured
CCOc1cc([C@@H]2SCC(=O)N2NC(=O)c2cnc(C)cn2)ccc1O	-16.05	11.17	> 100	> 100	7.269	-12.53	21.36	12.73	> 100	> 100	0.337 (≈ 0.9 µM)	26.6 (≈ 70.9 µM)	1.412	15.08	78.71	-27.76	32.72	28.89	29.15	86.08	IC50 [18]: > 100 µg/mL; MCC at 120 h [18]: > 100 µg/mL; inhibition (INH) (Pseudomonas fluorescens [19]): 12.75%; inhibition (INH) [20]: 90.6%; IC50 [21]: > 100 µg/mL; MCC at 120 h [21]: > 100 µg/mL; inhibition (INH) (Bacillus subtilis [22]): 16.07%; inhibition (INH) (Escherichia coli [23]): 16.57%
COc1cc([C@@H]2SCC(=O)N2NC(=O)c2cnc(C)cn2)ccc1O	42.47	47.41	> 100	70.2 (≈ 195 µM)	-19.0256	23.58	14.34	-2.64	> 100	62.3 (≈ 173 µM)	0.997 (≈ 2.77 µM)	27.9 (≈ 77.3 µM)	-19.102	8.59	66.03	33.04	-0.17	33.4	-53.27	70.7	IC50 [18]: > 100 µg/mL; MCC at 120 h [18]: > 100 µg/mL; inhibition (INH) (Pseudomonas fluorescens [19]): 33.16%; inhibition (INH) [20]: 91.2%; IC50 [21]: 86.9 µg/mL (≈ 241 µM); MCC at 120 h [21]: > 100 µg/mL; inhibition (INH) (Bacillus subtilis [22]): 19.67%; inhibition (INH) (Escherichia coli [23]): -54.14%
CCOc1cc([C@H]2SCC(=O)N2NC(=O)c2nccnc2N)ccc1O	4.98	40.87	> 100	80.8 (≈ 215 µM)	-15.9058	-5.22	22.27	-6.51	> 100	84.2 (≈ 224 µM)	3.46 (≈ 9.22 µM)	28.6 (≈ 76.3 µM)	12.74	-16.24	48.5	-48.72	24.55	38.28	-33.02	65	IC50 [18]: > 100 µg/mL; MCC at 120 h [18]: > 100 µg/mL; inhibition (INH) (Pseudomonas fluorescens [19]): 20.37%; inhibition (INH) [20]: 91.26%; IC50 [21]: 68.9 µg/mL (≈ 183 µM); MCC at 120 h [21]: > 100 µg/mL; inhibition (INH) (Bacillus subtilis [22]): 9.32%; inhibition (INH) (Escherichia coli [23]): -9.65%
